# Tests used:
# Assay in all cases: viability relative to DMSO control (fraction); higher = less drug effect (more viable cells)
# Details in all cases: 48 h
# [1] = compound: CO[C@H]1C[C@@H]2CC[C@@H](C)[C@@](O)(O2)C(=O)C(=O)N2CCCC[C@H]2C(=O)O[C@H]([C@H](C)C[C@@H]2CC[C@@H](OCCO)[C@H](OC)C2)CC(=O)[C@H](C)/C=C(\C)[C@@H](O)[C@@H](OC)C(=O)[C@H](C)C[C@H](C)/C=C/C=C/C=C/1C [Everolimus]
# In short: (§1)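 The cells were primary mononuclear tumour cells, either fresh or cryopreserved, isolated by Ficoll from blood or bone marrow or derived from processed lymph node. Each well of a 384-well plate received 4 × 10^4 cells onto compounds pre-plated at five concentrations, with one well per concentration. The medium was RPMI-1640 with penicillin/streptomycin, L-glutamine and human serum, and plates stood at 37 °C and 5% CO2 for 48 h. Viability is reported as CellTiter-Glo luminescence relative to the median of 16 inner DMSO wells.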
# [2] = compound: Cn1c(CCCC(=O)O)nc2cc(N(CCCl)CCCl)ccc21 [Bendamustine]
# In short: as §1
# [3] = compound: CO[C@@H]1[C@H](N(C)C(=O)c2ccccc2)C[C@H]2O[C@]1(C)n1c3ccccc3c3c4c(c5c6ccccc6n2c5c31)C(=O)NC4 [Midostaurin hydrate]
# In short: as §1
# [4] = compound: C[C@H](NC(=O)CCC(F)(F)F)C(=O)N[C@@H]1C(=O)N(CCO)c2ncccc2-c2ccccc21
# In short: as §1
# [5] = compound: C[C@H](Nc1ncnc2nc[nH]c12)c1cc2cccc(Cl)c2c(=O)n1-c1ccccc1 [Duvelisib]
# In short: as §1
# [6] = compound: COc1cc(C(=O)O)ccc1NC(=O)[C@@H]1N[C@@H](CC(C)(C)C)[C@](C#N)(c2ccc(Cl)cc2F)[C@H]1c1cccc(Cl)c1F [Idasanutlin (RS7388)]
# In short: as §1
# [7] = compound: O=C(/C=C\n1cnc(-c2cc(C(F)(F)F)cc(C(F)(F)F)c2)n1)NNc1cnccn1 [Selinexor]
# In short: as §1
# [8] = compound: CC1(C)CCC(c2ccc(Cl)cc2)=C(CN2CCN(c3ccc(C(=O)NS(=O)(=O)c4ccc(N[C@H](CCN5CCOCC5)CSc5ccccc5)c(S(=O)(=O)C(F)(F)F)c4)cc3)CC2)C1 [Navitoclax]
# In short: as §1
# [9] = compound: CC1(C)CCC(CN2CCN(c3ccc(C(=O)NS(=O)(=O)c4ccc(NCC5CCOCC5)c([N+](=O)[O-])c4)c(Oc4cnc5[nH]ccc5c4)c3)CC2)=C(c2ccc(Cl)cc2)C1 [Venetoclax]
# In short: as §1
# [10] = compound: O=C(Nc1nc2cccc(-c3ccc(CN4CCS(=O)(=O)CC4)cc3)n2n1)C1CC1 [Filgotinib]
# In short: as §1
# [11] = compound: CCc1ccc(/C=C2/SC(=S)NC2=O)cc1
# In short: as §1
# [12] = compound: O=C(NO)c1cccc(C(=O)NCCc2ccccc2)c1
# In short: as §1
# [13] = compound: CC[C@]1(O)C[C@@H]2CN(CCc3c([nH]c4ccccc34)[C@@](C(=O)OC)(c3cc4c(cc3OC)N(C)[C@H]3[C@@](O)(C(N)=O)[C@H](O)[C@]5(CC)C=CCN6CC[C@]43[C@@H]65)C2)C1 [Vindesine]
# In short: as §1
test system,measurement,setting,value
primary ALL patient cells (S048),viability,[1]; 0.0032 µM,0.862
same,viability,[1]; 0.016 µM,0.757
same,viability,[1]; 0.08 µM,0.769
same,viability,[1]; 0.4 µM,0.716
same,viability,[1]; 2 µM,0.777
same,viability,[2]; 0.032 µM,0.981
same,viability,[2]; 0.16 µM,1.03
same,viability,[2]; 0.8 µM,0.982
same,viability,[2]; 4 µM,0.747
same,viability,[2]; 20 µM,0.15
same,viability,[3]; 0.024 µM,0.98
same,viability,[3]; 0.12 µM,0.918
same,viability,[3]; 0.6 µM,0.889
same,viability,[3]; 3 µM,0.556
same,viability,[3]; 15 µM,0.182
same,viability,[4]; 0.016 µM,1.03
same,viability,[4]; 0.08 µM,1.08
same,viability,[4]; 0.4 µM,1.03
same,viability,[4]; 2 µM,1.06
same,viability,[4]; 10 µM,0.965
same,viability,[5]; 0.0016 µM,0.805
same,viability,[5]; 0.008 µM,0.76
same,viability,[5]; 0.04 µM,0.719
same,viability,[5]; 0.2 µM,0.679
same,viability,[5]; 1 µM,0.599
same,viability,[6]; 0.032 µM,0.695
same,viability,[6]; 0.16 µM,0.556
same,viability,[6]; 0.8 µM,0.235
same,viability,[6]; 4 µM,0.0549
same,viability,[6]; 20 µM,0.0421
same,viability,[7]; 0.008 µM,0.335
same,viability,[7]; 0.04 µM,0.341
same,viability,[7]; 0.2 µM,0.366
same,viability,[7]; 1 µM,0.378
same,viability,[7]; 5 µM,0.285
same,viability,[8]; 0.0032 µM,0.862
same,viability,[8]; 0.016 µM,0.514
same,viability,[8]; 0.08 µM,0.0937
same,viability,[8]; 0.4 µM,0.0489
same,viability,[8]; 2 µM,0.0282
same,viability,[9]; 0.00064 µM,0.803
same,viability,[9]; 0.0032 µM,0.317
same,viability,[9]; 0.016 µM,0.0881
same,viability,[9]; 0.08 µM,0.0546
same,viability,[9]; 0.4 µM,0.0458
same,viability,[10]; 0.024 µM,0.893
same,viability,[10]; 0.12 µM,0.912
same,viability,[10]; 0.6 µM,0.903
same,viability,[10]; 3 µM,0.917
same,viability,[10]; 15 µM,0.541
same,viability,[11]; 0.024 µM,0.58
same,viability,[11]; 0.12 µM,0.664
same,viability,[11]; 0.6 µM,0.749
same,viability,[11]; 3 µM,0.782
same,viability,[11]; 15 µM,0.701
same,viability,[12]; 0.024 µM,0.897
same,viability,[12]; 0.12 µM,0.878
same,viability,[12]; 0.6 µM,0.886
same,viability,[12]; 3 µM,0.828
same,viability,[12]; 15 µM,0.65
same,viability,[13]; 0.016 µM,0.395
same,viability,[13]; 0.08 µM,0.179
same,viability,[13]; 0.4 µM,0.111
same,viability,[13]; 2 µM,0.0967
same,viability,[13]; 10 µM,0.0648
primary ALL patient cells (S088),viability,[1]; 0.0032 µM,0.871
same,viability,[1]; 0.016 µM,0.782
same,viability,[1]; 0.08 µM,0.76
same,viability,[1]; 0.4 µM,0.739
same,viability,[1]; 2 µM,0.74
same,viability,[2]; 0.032 µM,1
same,viability,[2]; 0.16 µM,1.07
same,viability,[2]; 0.8 µM,1
same,viability,[2]; 4 µM,0.929
same,viability,[2]; 20 µM,0.679
same,viability,[3]; 0.024 µM,0.899
same,viability,[3]; 0.12 µM,0.858
same,viability,[3]; 0.6 µM,0.717
same,viability,[3]; 3 µM,0.489
same,viability,[3]; 15 µM,0.265
same,viability,[4]; 0.016 µM,1.08
same,viability,[4]; 0.08 µM,1.11
same,viability,[4]; 0.4 µM,1.08
same,viability,[4]; 2 µM,1.09
same,viability,[4]; 10 µM,1.05
same,viability,[5]; 0.0016 µM,0.927
same,viability,[5]; 0.008 µM,0.988
same,viability,[5]; 0.04 µM,0.879
same,viability,[5]; 0.2 µM,0.85
same,viability,[5]; 1 µM,0.691
same,viability,[6]; 0.032 µM,0.557
same,viability,[6]; 0.16 µM,0.423
same,viability,[6]; 0.8 µM,0.286
same,viability,[6]; 4 µM,0.155
same,viability,[6]; 20 µM,0.132
same,viability,[7]; 0.008 µM,0.494
same,viability,[7]; 0.04 µM,0.339
same,viability,[7]; 0.2 µM,0.115
same,viability,[7]; 1 µM,0.0421
same,viability,[7]; 5 µM,0.0377
same,viability,[8]; 0.0032 µM,1.01
same,viability,[8]; 0.016 µM,0.751
same,viability,[8]; 0.08 µM,0.386
same,viability,[8]; 0.4 µM,0.189
same,viability,[8]; 2 µM,0.106
same,viability,[9]; 0.00064 µM,0.916
same,viability,[9]; 0.0032 µM,0.657
same,viability,[9]; 0.016 µM,0.437
same,viability,[9]; 0.08 µM,0.259
same,viability,[9]; 0.4 µM,0.181
same,viability,[10]; 0.024 µM,0.831
same,viability,[10]; 0.12 µM,0.961
same,viability,[10]; 0.6 µM,0.825
same,viability,[10]; 3 µM,0.893
same,viability,[10]; 15 µM,0.751
same,viability,[11]; 0.024 µM,0.202
same,viability,[11]; 0.12 µM,0.324
same,viability,[11]; 0.6 µM,0.591
same,viability,[11]; 3 µM,0.593
same,viability,[11]; 15 µM,0.571
same,viability,[12]; 0.024 µM,0.838
same,viability,[12]; 0.12 µM,0.868
same,viability,[12]; 0.6 µM,0.907
same,viability,[12]; 3 µM,0.931
same,viability,[12]; 15 µM,0.733
same,viability,[13]; 0.016 µM,0.633
same,viability,[13]; 0.08 µM,0.464
same,viability,[13]; 0.4 µM,0.37
same,viability,[13]; 2 µM,0.317
same,viability,[13]; 10 µM,0.255
primary AML patient cells (S002),viability,[1]; 0.0032 µM,0.867
same,viability,[1]; 0.016 µM,0.955
same,viability,[1]; 0.08 µM,0.815
same,viability,[1]; 0.4 µM,0.813
same,viability,[1]; 2 µM,0.757
same,viability,[2]; 0.032 µM,1.11
same,viability,[2]; 0.16 µM,1.2
same,viability,[2]; 0.8 µM,1.14
same,viability,[2]; 4 µM,1.09
same,viability,[2]; 20 µM,0.724
same,viability,[3]; 0.024 µM,1.04
same,viability,[3]; 0.12 µM,0.936
same,viability,[3]; 0.6 µM,1.07
same,viability,[3]; 3 µM,1.25
same,viability,[3]; 15 µM,1.14
same,viability,[4]; 0.016 µM,0.907
same,viability,[4]; 0.08 µM,0.892
same,viability,[4]; 0.4 µM,0.942
same,viability,[4]; 2 µM,0.934
same,viability,[4]; 10 µM,0.823
same,viability,[5]; 0.0016 µM,1.09
same,viability,[5]; 0.008 µM,0.989
same,viability,[5]; 0.04 µM,0.732
same,viability,[5]; 0.2 µM,0.698
same,viability,[5]; 1 µM,0.471
same,viability,[6]; 0.032 µM,0.502
same,viability,[6]; 0.16 µM,0.416
same,viability,[6]; 0.8 µM,0.298
same,viability,[6]; 4 µM,0.239
same,viability,[6]; 20 µM,0.209
same,viability,[7]; 0.008 µM,0.831
same,viability,[7]; 0.04 µM,0.679
same,viability,[7]; 0.2 µM,0.584
same,viability,[7]; 1 µM,0.375
same,viability,[7]; 5 µM,0.332
same,viability,[8]; 0.0032 µM,1.18
same,viability,[8]; 0.016 µM,0.577
same,viability,[8]; 0.08 µM,0.305
same,viability,[8]; 0.4 µM,0.0634
same,viability,[8]; 2 µM,0.0337
same,viability,[9]; 0.00064 µM,0.979
same,viability,[9]; 0.0032 µM,0.955
same,viability,[9]; 0.016 µM,0.678
same,viability,[9]; 0.08 µM,0.667
same,viability,[9]; 0.4 µM,0.537
same,viability,[10]; 0.024 µM,1.16
same,viability,[10]; 0.12 µM,1.01
same,viability,[10]; 0.6 µM,0.926
same,viability,[10]; 3 µM,0.758
same,viability,[10]; 15 µM,0.405
same,viability,[11]; 0.024 µM,0.882
same,viability,[11]; 0.12 µM,0.758
same,viability,[11]; 0.6 µM,1.04
same,viability,[11]; 3 µM,0.727
same,viability,[11]; 15 µM,0.673
same,viability,[12]; 0.024 µM,0.965
same,viability,[12]; 0.12 µM,1.46
same,viability,[12]; 0.6 µM,1.09
same,viability,[12]; 3 µM,1.04
same,viability,[12]; 15 µM,1.13
same,viability,[13]; 0.016 µM,1.16
same,viability,[13]; 0.08 µM,1.12
same,viability,[13]; 0.4 µM,1.08
same,viability,[13]; 2 µM,0.965
same,viability,[13]; 10 µM,0.884

# — the supplement of paper PMC10733146
